Laboratory results: BindingDB's records for doi:10.1021/acs.jmedchem.3c00566 (Sichuan University, 2023)
One block for each compound: values may come before it.

What was measured:
[1] = biological target: Cyclin-dependent kinase 2 (Homo sapiens, UniProt P24941); experiment: Inhibition of CDK2 (unknown origin) expressed in baculovirus infected Sf9 cells in presence of [gamma-33p]-ATP and ATP
[2] = biological target: Cyclin-dependent kinase 5/p25; experiment: Inhibition of CDK5/p25 (unknown origin)
[3] = biological target: Cyclin-dependent kinase 2/cyclin A; experiment: Inhibition of CDK2/cyclin A (unknown origin)

IC50 [1]: 9 nM
SMILES: CC(C)c1n[nH]c2c(NCc3ccc(-c4ccccn4)cc3)nc(NCC(C)(C)O)nc12

IC50 [2]: 6.8 nM
SMILES: Cc1cc(S(=O)(=O)NCCOCCOCCOCCOCCNc2cccc3c2C(=O)N(C2CCC(=O)NC2=O)C3=O)ccc1Nc1ncc(Br)c(Nc2cccc(F)c2C(N)=O)n1 (stereo not drawn)

IC50 [3]: 10000 nM
SMILES: O=C(Nc1csc(Cc2c(Cl)cccc2Cl)n1)NN1CCOCC1 [1-[2-(2,6-Dichloro-benzyl)-thiazol-4-yl]-3-morpholin-4-yl-urea]
